How the values were obtained:
Assay type in all cases: cell-based
Gram-negative bacteria [1] = experiment: Sensitization to novobiocin, ester and amide side chain compounds (Table 14); details: strain not given
Description: (§1) Aliquots of 1 mL of the suspension were added to test tubes containing 1 mL TSB and incrementally varied concentrations of cholic acid derivatives and/or erythromycin or novobiocin. In the sensitization experiments, erythromycin or novobiocin were added 15 minutes later than the cholic acid derivatives. The samples were subjected to stationary incubation at 37° C. for 24 hours. Sample turbidity was determined by measuring absorption at 760 nm (HP 8453 UV-Visible Chemstation, Hewlett Packard). Additionally, an alliquot from each of the samples showing no measurable turbidity was subcultured on TSA plates (alliquots were diluted to provide fewer than 300 CFU). Colonies that grew on the subculture after overnight incubation were counted and the number of CFU/mL in the samples were calculated. The calculated values were compared to the number of CFU/mL in the original inoculum.
(§2) Ability to permeabilize outer membrane: Compounds 11, 106, and 108-114 (FIG. 1) were tested for antibiotic activity. They were also tested for the ability to permeabilize the outer membrane of Gram-negative bacteria, causing sensitization to hydrophobic antibiotics that cannot cross the outer membrane. The permeabilization of the outer membrane was measured using erythromycin and novobiocin.
(§3) Ester and amide side chains: Additional compounds, for example, compounds with amide and ester side chains, were tested.

Gram-negative bacteria [2] = experiment: Sensitization to erythromycin, ester and amide side chain compounds (Table 14); details: Table 14; strain not given
Description: as §1, §2, §3

Gram-negative bacteria [3] = experiment: MIC of ester and amide side chain compounds (Table 14); details: strain not given
Description: as §1, §3

CC(CCCO)C1CCC2C3C(NC(=O)C(N)CCCCN)CC4CC(NC(=O)C(N)CCCCN)CCC4(C)C3CC(NC(=O)C(N)CCCCN)C12C (stereo not drawn) [Compound 209c]
b: concentration of cholic acid derivatives required to lower MIC of novobiocin to 1 μg/ML (Gram-negative bacteria [1]): 60 mg/L
a: concentration of cholic acid derivatives required to lower MIC of erythromycin to 1 μg/ML (Gram-negative bacteria [2]): 45 mg/L
MIC (Gram-negative bacteria [3]): 85 mg/L

C[C@H](CCCO)[C@H]1CC[C@H]2[C@@H]3[C@H](NC(=O)CCN)C[C@@H]4C[C@H](NC(=O)CCN)CC[C@]4(C)[C@H]3C[C@H](NC(=O)CCN)[C@]12C [Compound 209b]
b: concentration of cholic acid derivatives required to lower MIC of novobiocin to 1 μg/ML (Gram-negative bacteria [1]): 75 mg/L
a: concentration of cholic acid derivatives required to lower MIC of erythromycin to 1 μg/ML (Gram-negative bacteria [2]): 40 mg/L
MIC (Gram-negative bacteria [3]): >100 mg/L

C[C@H](CCCO)[C@H]1CC[C@H]2[C@@H]3[C@H](OC(=O)CN)C[C@@H]4C[C@H](OC(=O)CN)CC[C@]4(C)[C@H]3C[C@H](OC(=O)CN)[C@]12C [Compound 203a]
b: concentration of cholic acid derivatives required to lower MIC of novobiocin to 1 μg/ML (Gram-negative bacteria [1]): 55 mg/L
a: concentration of cholic acid derivatives required to lower MIC of erythromycin to 1 μg/ML (Gram-negative bacteria [2]): 18 mg/L
MIC (Gram-negative bacteria [3]): 85 mg/L

C[C@H](CCCO)[C@H]1CC[C@H]2[C@@H]3[C@H](OC(=O)CCN)C[C@@H]4C[C@H](OC(=O)CCN)CC[C@]4(C)[C@H]3C[C@H](OC(=O)CCN)[C@]12C [Compound 203b]
b: concentration of cholic acid derivatives required to lower MIC of novobiocin to 1 μg/ML (Gram-negative bacteria [1]): 10 mg/L
a: concentration of cholic acid derivatives required to lower MIC of erythromycin to 1 μg/ML (Gram-negative bacteria [2]): 4 mg/L
MIC (Gram-negative bacteria [3]): 80 mg/L

C[C@H](CCCN(C)Cc1ccccc1)[C@H]1CC[C@H]2[C@@H]3[C@H](NC(=O)CN)C[C@@H]4C[C@H](NC(=O)CN)CC[C@]4(C)[C@H]3C[C@H](NC(=O)CN)[C@]12C [Compound 210a]
b: concentration of cholic acid derivatives required to lower MIC of novobiocin to 1 μg/ML (Gram-negative bacteria [1]): 18 mg/L
a: concentration of cholic acid derivatives required to lower MIC of erythromycin to 1 μg/ML (Gram-negative bacteria [2]): 6 mg/L
MIC (Gram-negative bacteria [3]): 80 mg/L
